Experimental data taken from US6866857B1, “Oxalipatinum preparation packaging” (Debiopharm S.A., priority 1998, dated 2005).
“Also recorded” adds a separate entry of the source.

Legend:
[1] = accelerated stability study of liquid oxaliplatinum solution packed in flexible bag; type: physicochemical; conditions: for Appearance of the solution / pH / Impurities by HPLC (%) / L-OHP titre/standard (%) / Oxalic acid titre (%): 2 mg/ml solution, 40° C.
[2] = tolerance of aqueous oxaliplatinum preparations to contact with PVC-based materials; type: physicochemical; conditions: pharmaceutical preparations in aqueous solution
[3] = 6 Months, HPLC, PA 11/PP bag, 75% RH
[4] = 12 Months, PA 11/PP bag, 75% RH
[5] = 12 Months, HPLC, PA 11/PP bag, 75% RH
[6] = Week 0, HPLC, PA 11/PP bag, 75% RH
[7] = Week 1, HPLC, PA 11/PP bag, 75% RH
[8] = Week 2, HPLC, PA 11/PP bag, 75% RH
[9] = Week 3, HPLC, PA 11/PP bag, 75% RH
[10] = Week 4, HPLC, PA 11/PP bag, 75% RH
[11] = Week 5, HPLC, PA 11/PP bag, 75% RH
[12] = Week 12, HPLC, PA 11/PP bag, 75% RH

## O=C1[O][Pt]2([NH][C@@H]3CCCC[C@H]3[NH]2)[O]C1=O (relative stereo) [oxaliplatinum, cis-oxalato(trans-1-1-diaminocyclohexane) platinum(II)]
[1]; 6 Months, PA 11/PP bag, 75% RH
  Appearance of the solution: Clear,
  pH: 5.20
[1]; [3]
  Impurities by HPLC (%): 0.5%
  L-OHP titre/standard (%): 98.9%
  Oxalic acid titre (%): <0.1%
[1]; [4]
  Appearance of the solution: Clear,
  pH: 5.30
[1]; [5]
  Impurities by HPLC (%): 0.6%
  L-OHP titre/standard (%): 98.5%
  Oxalic acid titre (%): <0.1%
[1]; HPLC
  maximum percentage of apparent impurities: ≤ 2%
[1]; Week 0, 100 ml PA 11/PP bag, 75% relative humidity
  Appearance of the solution: Clear,
[1]; Week 0, PA 11/PP bag, 75% RH
  pH: 5.56
[1]; [6]
  Impurities by HPLC (%): 0.10%
  L-OHP titre/standard (%): 99.7%
  Oxalic acid titre (%): <0.1%
[1]; Week 1, PA 11/PP bag, 75% RH
  Appearance of the solution: Clear,
  pH: 5.10
[1]; [7]
  Impurities by HPLC (%): 0.60%
  L-OHP titre/standard (%): 100.1%
  Oxalic acid titre (%): <0.1%
[1]; Week 2, PA 11/PP bag, 75% RH
  Appearance of the solution: Clear,
  pH: 5.24
[1]; [8]
  Impurities by HPLC (%): 0.50%
  L-OHP titre/standard (%): 100.0%
  Oxalic acid titre (%): <0.1%
[1]; Week 3, PA 11/PP bag, 75% RH
  Appearance of the solution: Clear,
  pH: 5.22
[1]; [9]
  Impurities by HPLC (%): 0.50%
  L-OHP titre/standard (%): 100.9%
  Oxalic acid titre (%): <0.1%
[1]; Week 4, PA 11/PP bag, 75% RH
  Appearance of the solution: Clear,
[1]; [10]
  Impurities by HPLC (%): 0.48%
  L-OHP titre/standard (%): 99.3%
  Oxalic acid titre (%): <0.1%
[1]; Week 5, PA 11/PP bag, 75% RH
  Appearance of the solution: Clear,
  pH: 5.23
[1]; [11]
  Impurities by HPLC (%): 0.45%
  L-OHP titre/standard (%): 97.7%
  Oxalic acid titre (%): <0.1%
[1]; Week 12, PA 11/PP bag, 75% RH
  Appearance of the solution: Clear,
  pH: 5.35
[1]; [12]
  Impurities by HPLC (%): 0.40%
  L-OHP titre/standard (%): 99.3%
  Oxalic acid titre (%): <0.1%
[1]; liquid solution in flexible bag
  period of stability of the liquid solution packed in a flexible bag: stable for a period extending to more than three months, and even to more than six months; also recorded: stable for at least one year
[1]; observed for twelve months, flexible bag
  appearance of the solution over the whole period: clarity and the absence of coloration
[1]; same conditions, FIG. 6 vs FIG. 7
  stability compared with solution packed in a glass bottle: stability analogous
[2]
  tolerance of contact with PVC-based materials: cannot tolerate being in contact with PVC-based materials
